Test results reported in patent US7355063B2, “Shogaol compound and tyrosinase activity inhibitor comprising the compound” (Toagosei Co., Ltd., priority 2003, dated 2008).

Experiments:
[1] = Test of suppressing lipid peroxide formation using linoleic acid
Experimental: Using the compound 7 obtained in Example 2, the compound 38 obtained in Example 22, the compound 40 obtained in Example 24, the compound 42 obtained in Example 26, the compound 46 obtained in Example 30, and as a comparative control, dl-α-tocopherol (manufactured by Tokyo Kasei Kogyo Co., Ltd.), a test of suppressing lipid peroxide formation was carried out using linoleic acid.
(1) After ethanol (2.0 g) was added to linoleic acid (0.2 g, manufactured by Tokyo Kasei Kogyo Co., Ltd.), the compound 7 (0.01 g), and a surfactant Nissan OT-221 (0.4 g, manufactured by NOF Corporation) placed in a 50-ml screw vial and they was dissolved one another, distilled water (17.39 g) was added to the resulting solution and the whole was stirred. Then, the whole was tightly sealed and allowed to stand in a constant-temperature chamber at 40° C. Such sample was prepared in a duplex manner.
The same operation was carried out on the compounds 38, 40, 42, 46, dl-α-tocopherol, and a sample with addition of no test compound (blank).
(2) The amount of remaining linoleic acid after one week, 2 weeks, 3 weeks, and 4 weeks from the start of the test was quantitatively determined by HPLC.
The HPLC analytical conditions were as follows: Wavelength for detection: 210 nm; Mobile phase: a mixed solution of a Mc Ilvaine buffer adjusted to pH 2.6 and methanol (10:90); Flow rate: 1 ml/min; Column: ODS-80Ts (4.6 φmm×150 mm); and Column temperature: 40° C.
(3) Quantitative determination by HPLC was carried out on each sample one time. The ratio of remaining linoleic acid was calculated on the basis of the mean value of values obtained in two-times measurement.

[2] = Test of scavenging DPPH radical (Test Example 9, microplate reader, 540 nm); conditions: final concentration of 25 μg/mL; 20 minutes, room temperature
Excerpt: Using the compound 36 obtained in Example 20, the compound 37 obtained in Example 21, the compound 38 obtained in Example 22, the compound 39 obtained in Example 23, the compound 40 obtained in Example 24, the compound 42 obtained in Example 26, the compound 45 obtained in Example 29, the compound 46 obtained in Example 30, the compound 48 obtained in Example 32 and, as a comparative control, dl-α-tocopherol (manufactured by Tokyo Kasei Kogyo Co., Ltd.), a test of scavenging DDPH (1,1-diphenyl-2-picrylhydrazyl) radical, a stable radical, was carried out.
100 μl of 800 μM DPPH ethanol solution was added to 80 μl of 100 mM Tris-HCl buffer (pH 7.4) and 20 μl of an ethanol solution of the compound 36 (final concentration of 25 μg/mL), followed by sufficient stirring. After the resulting mixture was allowed to stand in a dark place at room temperature for 20 minutes, the absorbance at 540 nm was measured on a microplate reader (absorbance of the test solution).
The compounds 37, 38, 39, 40, 42, 45, 46, and 48 of the invention as well as dl-α-tocopherol as a known radical scavenger were similarly tested.
As a control, using 80 μl of 100 mM Tris-HCl buffer (pH 7.4), 20 μl of ethanol, and 100 μl of 800 μM DPPH ethanol solution, the same operation was carried out as described above and the absorbance was measured (absorbance of the control solution).
With the individual compounds, the same measurement was repeated four times, and the mean value was inserted in the following formula to calculate a DPPH radical-scavenging ratio. DPPH radical-scavenging ratio (%)=[1−(absorbance of sample solution/absorbance of control solution)]×100

[3] = Test of scavenging DPPH radical (Test Example 8, 517 nm); conditions: final concentration of 10 μg/mL; 20 minutes, room temperature
Experimental: Using the compound 7 obtained in Example 2 as well as dl-α-tocopherol (manufactured by Tokyo Kasei Kogyo Co., Ltd.) and butylhydroxytoluene (BHT) as comparative controls, a test of scavenging DDPH (1,1-diphenyl-2-picrylhydrazyl) radical, a stable radical, was carried out.
1 ml of 200 μM DPPH ethanol solution was added to 800 μl of 100 mM Tris-HCl buffer (pH 7.4) and 200 μl of an ethanol solution of the compound 7 (a final concentration of 10 μg/mL), followed by sufficient stirring. After the resulting mixture was allowed to stand in a dark place at room temperature for 20 minutes, the absorbance at 517 nm was measured (absorbance of the test solution)
The compound 13 of the invention as well as dl-α-tocopherol and butylhydroxytoluene as a known radical scavenger were similarly tested.
As a control, 800 μl of 100 mM Tris-HCl buffer (pH 7.4), 200 μl of ethanol, and 1 ml of 200 μM DPPH ethanol solution were used in the same manner as described above and the absorbance was measured (absorbance of the control solution).
With the individual compounds, the same measurement was repeated three times, and the mean value was inserted in the following formula to calculate a DPPH radical-scavenging ratio (%). DPPH radical-scavenging ratio (%)=[1−(absorbance of sample solution/absorbance of control solution)]×100

mushroom tyrosinase = assay: Tyrosinase activity inhibition test using L-dopa as substrate (Test Examples 3 to 6, microplate reader, 490 nm); type: biochemical; conditions: Table 6, 0.50 mg/mL
Experimental: Using the compound 37 obtained in Example 21, the compound 38 obtained in Example 22, the compound 39 obtained in Example 23, and arbutin (manufactured by Tokyo Kasei Kogyo Co., Ltd.) as a comparative control, a tyrosinase activity inhibition test was carried out using L-dopa as a substrate.
The specific test procedures are as follows. • (1) 72 μl of a phosphate buffer prepared by dissolving 1.000 g of sodium dihydrogen phosphate and 1.186 g of disodium hydrogen phosphate in 500 ml of distilled water, 80 μl of a substrate solution prepared by dissolving 32.7 mg of L-DOPA in 200 ml of distilled water, and 8 μl of a test solution prepared by dissolving the test compound in dimethyl sulfoxide were mixed together. • (2) 80 μl of an enzyme solution prepared by dissolving 3.0 mg (2400 units; manufactured by Sigma Corporation) of mushroom tyrosinase in 7.0 ml of distilled water and diluting the solution with the above phosphate buffer so as to make it five times in amount was added to the solution prepared in (1), and the whole was stirred for 15 seconds. The resulting solution was maintained at 25° C., and the absorbance at 490 nm was measured by a microplate reader one minute and 45 seconds later and 2 minutes and 45 seconds later. • (3) The test operations in the above (1) and (2) were conducted four times for the individual test compounds and blank test (only dimethyl sulfoxide), and the resulting numeric value was inserted in the following calculation formula and a mean value thereof was regarded as a tyrosinase activity inhibition ratio (%). Tyrosinase activity inhibition ratio (%)=[(T^1−T^2)/T^1]×100 • T^1=difference in absorbance of solution with addition of no test compound between 2 minutes and 45 seconds later and one minute and 45 seconds later • T^2=difference in absorbance of solution with addition of test compound was added between 2 minutes and 45 seconds later and one minute and 45 seconds later
(§1) Using the compound 42 obtained in Example 26, the compound 45 obtained in Example 29, the compound 46 obtained in Example 30, and arbutin (manufactured by Tokyo Kasei Kogyo Co., Ltd.) as a comparative control, a tyrosinase activity inhibition test was carried out using L-dopa as a substrate. The test procedure was in accordance with Test Example 3.
as §1, with “34” for “42”, “18,” for “26,”, “47” for “45”, “31,” for “29, the compound 46 obtained in Example 30,”
Using the compound 48 obtained in Example 32 and arbutin (manufactured by Tokyo Kasei Kogyo Co., Ltd.) as a comparative control, a tyrosinase activity inhibition test was carried out using L-dopa as a substrate. The test procedure was in accordance with Test Example 3.

SMILES | Ratio of remaining linoleic acid (%) ([1]; After 1 week at 40° C.) | Ratio of remaining linoleic acid (%) ([1]; After 2 weeks at 40° C.) | Ratio of remaining linoleic acid (%) ([1]; After 3 weeks at 40° C.) | Ratio of remaining linoleic acid (%) ([1]; After 4 weeks at 40° C.) | DPPH radical-scavenging ratio (%) [2] | DPPH radical-scavenging ratio (%) [3] | Tyrosinase activity inhibition ratio (%) (mushroom tyrosinase; 0.25 mg/mL) | Tyrosinase activity inhibition ratio (%) (mushroom tyrosinase; 0.5 mg/mL)
Cc1c(C)c2c(c(C)c1O)CCC(C)(CCCC(C)CCCC(C)CCCC(C)C)O2 (racemic) [Tocopherol, dl-α-tocopherol] | 88.7% | 81.3% | 69.7% | 50.0% | 14.9% | 28.4% |  | 
COc1cc(CCC(O)CC(CCCCCCO)OC)ccc1O (stereo not drawn) [Compound 48] |  |  |  |  | 33.5% |  | 38.2% | 47.1%
